In paper PMC1933452, “Molecular Basis of Resistance to Muramidase and Cationic Antimicrobial Peptide Activity of Lysozyme in Staphylococci” (PLoS Pathogens, 2007):
Where “and” joins values, the source holds several entries; their conditions need not be identical. Equal values may be shown once. Read-outs that look alike come from different tables or passages of the source. Where a SMILES comes first, the peptide text is derived from it. Bridges are numbered along the chain shown (N, C = ends). Where no end group is shown, it is not given here. [ ]: non-standard residue; d: D form. The star is where a group is joined. X1 = CC[C@H](C)CCCCC(=O)*; Dab = NCC[C@H](N)C(=O)O

Key:
graRS mutant = test: Effects of cationic agents on exponential growth, graRS mutant; format: cell-based, Staphylococcus aureus; conditions: PMB 20 μg/ml; for Susceptibility of growing culture (OD578nm) / Resumption of growth in the presence of the CAMP: graRS mutant, Gdm 8 μg/ml; for Susceptibility of growing culture (OD578nm): BM 37 °C, agent added at OD578nm 1.0, Lys or heat-inactivated Lys 300 μg/ml, LP9 200 μg/ml; for Resumption of growth in the presence of the CAMP: up to 24 h
Protocol: (§1) Overnight cultures were diluted to an OD578nm of 0.1 in 50 ml of BM and the cultures were incubated with shaking at 37 °C. OD was determined every hour. Ten milliliters of each culture were transferred into a new 100-ml flask when the cultures reached an OD578nm of nearly 1.0. Then, cationic agents, such as hen egg-white lysozyme and human lysozyme (Sigma-Aldrich, http://www.sigmaaldrich.com/), LP9 (a lysozyme-derived 9-aa peptide, 107R-A-W-V-A-W-R-N-R115–NH2) (EMC, http://www.microcollections.de/), polymyxin B (Sigma-Aldrich), gallidermin (Genmedics, http://www.genmedics.com/), or mutanolysin (Sigma), were added. Lysozyme was inactivated by heating for 1 h at 100 °C and placed on ice. The OD578nm of all cultures was measured hourly up to 7–8 h and after 24 h.

dltA::spc = test: MIC assay, dltA mutant; format: cell-based, Staphylococcus aureus; conditions: for MIC: dltA::spc, serial dilution, BM without glucose with 0.5% xylose, 37 °C, 20–24 h, mean of three to five independent experiments
Protocol: (§2) The overnight cultures were diluted in BM with 0.5% xylose to a concentration of 0.5 × 10^6 CFU per ml and aliquoted in 0.5-ml samples, and cationic agents in different concentrations were added.

WT SA113 = test: Effects of cationic agents on exponential growth, WT; format: cell-based, Staphylococcus aureus; conditions: WT SA113, BM 37 °C, agent added at OD578nm 1.0; Lys or heat-inactivated Lys 300 μg/ml, LP9 200 μg/ml, PMB 20 μg/ml, Gdm 8 μg/ml
Protocol: as §1

graRS::erm (pTXgraRS) = test: MIC assay, complemented graRS mutant; format: cell-based, Staphylococcus aureus; conditions: for MIC: graRS::erm (pTXgraRS), serial dilution, BM without glucose with 0.5% xylose as inductor, 37 °C, 20–24 h, mean of three to five independent experiments
Protocol: as §2

oatA::kan/graRS::erm = test: MIC assay, oatA/graRS double mutant; format: cell-based, Staphylococcus aureus; conditions: for MIC: oatA::kan/graRS::erm, serial dilution, BM without glucose with 0.5% xylose, 37 °C, 20–24 h, mean of three to five independent experiments
Protocol: as §2

graRS::erm = test: MIC assay, graRS mutant; format: cell-based, Staphylococcus aureus; conditions: for Susceptibility of graRS mutant relative to WT: from MIC values; for MIC: graRS::erm, serial dilution, BM without glucose with 0.5% xylose, 37 °C, 20–24 h, mean of three to five independent experiments
Protocol: as §2

oatA::kan = test: MIC assay, oatA mutant; format: cell-based, Staphylococcus aureus; conditions: serial dilution, BM without glucose with 0.5% xylose, 37 °C, 20–24 h, mean of three to five independent experiments
Protocol: as §2

SA113 = format: cell-based, Staphylococcus aureus; conditions: for MIC: SA113, serial dilution, BM without glucose with 0.5% xylose, 37 °C, 20–24 h, mean of three to five independent experiments
Protocol: as §2

SA113 (pTXgraRS) = test: MIC assay, WT overexpressing graRS; format: cell-based, Staphylococcus aureus; conditions: for MIC: SA113 (pTXgraRS), serial dilution, BM without glucose with 0.5% xylose as inductor, 37 °C, 20–24 h, mean of three to five independent experiments
Protocol: as §2

oatA::kan/dltA::spc = test: MIC assay, oatA/dltA double mutant; format: cell-based, Staphylococcus aureus; conditions: for MIC: oatA::kan/dltA::spc, serial dilution, BM without glucose with 0.5% xylose, 37 °C, 20–24 h, mean of three to five independent experiments
Protocol: as §2

dltA mutant = test: Effects of cationic agents on exponential growth, dltA mutant; format: cell-based, Staphylococcus aureus; conditions: LP9 200 μg/ml, PMB 20 μg/ml, Gdm 8 μg/ml; for Susceptibility of growing culture (OD578nm): BM 37 °C, agent added at OD578nm 1.0, Lys or heat-inactivated Lys 300 μg/ml; for Resumption of growth in the presence of the CAMP: up to 24 h
Protocol: as §1

oatA mutant = test: Effects of cationic agents on exponential growth, oatA mutant; format: cell-based, Staphylococcus aureus; conditions: BM 37 °C, agent added at OD578nm 1.0, Lys or heat-inactivated Lys 300 μg/ml, LP9 200 μg/ml
Protocol: as §1

[1] = test system: PG isolated from oatA mutant; test: Turbidometric assay of PG, oatA mutant; format: biochemical, Staphylococcus aureus; conditions: PG of oatA mutant 0.5 mg/ml, 300 μg/ml, 80 mM PBS pH 6.4, 4 h
Protocol: (§3) One liter of BM was inoculated with an overnight culture of the WT SA113 or the mutants. Strains were grown for 12 h with shaking at 37 °C. Cells were centrifuged, washed two times with cold 0.9% NaCl, diluted in 0.9% NaCl, and boiled for 20 min. After the cells were chilled on ice, they were again centrifuged and washed twice with 0.9% NaCl. The cells were disrupted in a mechanical grinding device using glass beads ∅150–212 μm (Sigma-Aldrich) at 4 °C, centrifuged and washed two times with cold H2Obidest, boiled for 30 min in 2% SDS to remove noncovalently bound proteins, and washed four times with H2Obidest. The cell wall fragments were diluted in 0.1 M Tris/HCl (pH 6.8) and incubated with 0.5 mg/ml trypsin for 16 h at 37 °C to degrade cell-bound proteins. After centrifugation and washing with water, the PG was lyophilized.
(§4) For analyzing the susceptibility of PG to lysozyme, we used a modified method turbidometric assay as described by Clarke. The PG of the WT SA113 and the mutants were sonicated and diluted to 0.5 mg in 1 ml of 80 mM PBS (pH 6.4). After the addition of 300 μg lysozyme per ml, the decrease in optical density was monitored at the beginning (0 h) and after 4 h at OD660nm and calculated as percentages.

oatA/graRS mutant = test: Effects of cationic agents on exponential growth, oatA/graRS mutant; format: cell-based, Staphylococcus aureus; conditions: BM 37 °C, agent added at OD578nm 1.0, Lys 50 μg/ml, heat-inactivated Lys 300 μg/ml, LP9 200 μg/ml
Protocol: as §1

[2] = test system: PG isolated from graRS mutant; test: Turbidometric assay of PG, graRS mutant; format: biochemical, Staphylococcus aureus; conditions: PG of graRS mutant 0.5 mg/ml, 300 μg lysozyme per ml, 80 mM PBS pH 6.4, 4 h
Protocol: as §3, §4

oatA/dltA mutant = test: Effects of cationic agents on exponential growth, oatA/dltA mutant; format: cell-based, Staphylococcus aureus; conditions: BM 37 °C, agent added at OD578nm 1.0, Lys 20 μg/ml, LP9 200 μg/ml
Protocol: as §1

[3] = test system: PG isolated from oatA/graRS double mutant; test: Turbidometric assay of PG, oatA/graRS mutant; format: biochemical, Staphylococcus aureus; conditions: PG of oatA/graRS double mutant 0.5 mg/ml, 300 μg lysozyme per ml, 80 mM PBS pH 6.4, 4 h
Protocol: as §3, §4

[4] = test system: PG isolated from dltA mutant; test: Turbidometric assay of PG, dltA mutant; format: biochemical, Staphylococcus aureus; conditions: PG of dltA mutant 0.5 mg/ml, 300 μg lysozyme per ml, 80 mM PBS pH 6.4, 4 h
Protocol: as §3, §4

Compound | Susceptibility of growing culture (OD578nm) (graRS mutant) | Resumption of growth in the presence of the CAMP (graRS mutant) | MIC (dltA::spc) | Susceptibility of growing culture (OD578nm) (WT SA113) | MIC (graRS::erm (pTXgraRS)) | MIC (oatA::kan/graRS::erm) | Susceptibility of graRS mutant relative to WT (graRS::erm) [fold] | MIC (graRS::erm) | MIC (oatA::kan) | MIC (SA113; 0.5 × 10^6 CFU per ml) | MIC (SA113) [µM] | MIC (SA113 (pTXgraRS)) | MIC (oatA::kan/dltA::spc) | Susceptibility of growing culture (OD578nm) (dltA mutant) | Resumption of growth in the presence of the CAMP (dltA mutant) | Susceptibility of growing culture (OD578nm) (oatA mutant) | Hydrolysis of isolated PG (decrease in OD660nm) [1] | Susceptibility of growing culture (OD578nm) (oatA/graRS mutant) | further results
CC[C@H](C)CCCCC(=O)N[C@@H](CCN)C(=O)N[C@H](C(=O)N[C@@H](CCN)C(=O)N[C@H]1CCNC(=O)[C@H]([C@@H](C)O)NC(=O)[C@H](CCN)NC(=O)[C@H](CCN)NC(=O)[C@H](CC(C)C)NC(=O)[C@@H](Cc2ccccc2)NC(=O)[C@H](CCN)NC1=O)[C@@H](C)O [Polymyxin B, polymyxin B] (X1-[Dab]T[Dab][Dab][Dab][dF]L[Dab][Dab]T; lactam 4-C (inferred); N-terminus assumed) | immediate growth arrest | started to grow after some time | 10 μg/ml and 7.2 μM | much less affected | >800 µg/mL | 25 μg/ml and 18 μM | 17 | 20 μg/ml and 14.4 μM | 350 μg/ml and 252.5 μM | 350 µg/mL | 252.5 | >500 µg/mL | 10 μg/ml and 7.2 μM | more susceptible | unable to resume growth | – | – | – | Growth of subculture challenged again (graRS mutant; new culture inoculated from 24-h graRS culture treated with polymyxin B): no growth retardation; Increase in resistance by overexpression of graRS (pTXgraRS) in the graRS mutant (graRS::erm (pTXgraRS); from MIC values): approximately 2 fold; Increase in resistance by overexpression of graRS (pTXgraRS) in the WT (SA113 (pTXgraRS); from MIC values): approximately 2 fold
Heat-inactivated lysozyme: Catalytic inactive lysozyme, inactivated by heating for 1 h at 100 °C | does not affect | – | – | completely insensitive | – | – | – | – | – | – | – | – | – | inhibited | – | no activity | no activity | able to inhibit the growth | –
Lysozyme | only marginally affected | – | 2,000 μg/ml and 138.8 μM | completely lysozyme resistant | >50,000 μg/ml | 600 μg/ml and 41.6 μM | – | >50,000 μg/ml | 10,000 μg/ml and 694 μM | >50,000 μg/ml | – | >50,000 μg/ml | 30 μg/ml and 2.08 μM | more sensitive | – | only marginally affected | sensitive to the muramidase activity | highly susceptible | Sensitivity of dltA single mutant relative to WT (dltA::spc; from MIC values): over 25 fold; Sensitivity of dltA single mutant relative to oatA single mutant (dltA::spc; from MIC values): 5 fold; Hydrolysis of isolated PG (decrease in OD660nm) [2]: completely resistant; Sensitivity of oatA/graRS double mutant relative to oatA mutant (oatA::kan/graRS::erm; from MIC values): ~17 fold; Susceptibility of growing culture (OD578nm) (oatA/dltA mutant): stays lysozyme sensitive even after 24 h; Resistance at highest concentration (graRS::erm; graRS mutant, at a concentration of 50 mg/ml): completely resistant; Resistance at highest concentration (SA113; WT, at a concentration of 50 mg/ml): completely resistant; Hydrolysis of isolated PG (decrease in OD660nm) [3]: hydrolysed; Sensitivity of oatA/dltA double mutant relative to oatA single mutant (oatA::kan/dltA::spc; from MIC values): > 333 fold and 333 fold; Sensitivity of oatA/dltA double mutant relative to oatA/graRS double mutant (oatA::kan/dltA::spc; from MIC values): 20 fold; Hydrolysis of isolated PG (decrease in OD660nm) [4]: not hydrolyzed
gallidermin (IASKFLCTPGCAKTGSFNSYCC; cysteine pairing not given here; also: lantibiotic; UniProt P21838 31-52, looked up) [lantibiotic, CAMP (Genmedics)] | immediate growth arrest | started to grow after some time | 1.2 μg/ml and 0.55 μM | inhibited the WT | 9 μg/ml and 4.1 μM | 3 μg/ml and 1.36 μM | 4 | 2.5 μg/ml and 1.14 μM | 9 μg/ml and 4.1 μM | 9 µg/mL | 4.1 | 9 μg/ml and 4.1 μM | 1.2 μg/ml and 0.55 μM | more susceptible | unable to resume growth | – | – | – | –
